# Data taken from paper PMC11537999, “Identification of human pregnane X receptor antagonists utilizing a high-throughput screening platform” (Frontiers in Pharmacology, 2024).
# Biological target: T1, hPXR (Homo sapiens, UniProt O75469)
# T1 construct: expressed in transfected cells; provided by Dr. Taosheng Chen, St. Jude
# T1 sequence (O75469 1-434): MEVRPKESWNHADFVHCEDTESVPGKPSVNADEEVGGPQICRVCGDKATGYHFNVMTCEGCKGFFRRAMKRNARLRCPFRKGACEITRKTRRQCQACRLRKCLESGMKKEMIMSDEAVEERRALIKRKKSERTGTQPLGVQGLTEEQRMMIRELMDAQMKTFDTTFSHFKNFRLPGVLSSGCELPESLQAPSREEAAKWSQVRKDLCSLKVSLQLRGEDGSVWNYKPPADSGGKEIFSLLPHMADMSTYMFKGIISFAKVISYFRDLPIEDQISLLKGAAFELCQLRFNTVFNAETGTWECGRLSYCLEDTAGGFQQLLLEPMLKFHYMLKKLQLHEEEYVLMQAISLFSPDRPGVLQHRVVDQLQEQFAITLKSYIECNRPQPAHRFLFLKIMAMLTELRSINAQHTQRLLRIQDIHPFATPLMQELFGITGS
# Assay: PXR luciferase reporter gene assay (qHTS antagonist mode, rifampicin co-treatment) in HepG2-CYP3A4-hPXR cells
# Format: cell-based
# Details: 2 μM rifampicin, used as treatment concentration in HepaRG cells
# Description: HepG2 cells stably transfected with a CYP3A4-luc promoter construct and hPXR expression plasmid were provided by Dr. Taosheng Chen (Department of Chemical Biology and Therapeutics, St. Jude Children’s Research Hospital) ([Lin et al., 2008]). Cells were thawed in EMEM (ATCC, Rockville, Maryland), supplemented with 10% Hyclone FBS (GE Healthcare Life Sciences, Logan, Utah) and 100 U/mL of Penicillin and 100 μg/mL of Streptomycin (Invitrogen, Carlsbad, CA) and kept in an incubator at 37°C and 5% CO2. To culture these HepG2-CYP3A4-hPXR cells, 500 μg/mL of Geneticin (GIBCO, Gaithersburg, MD) was added to the thawing media.
# (§1) HepG2-CYP3A4-hPXR cells were dispensed into tissue culture treated 1536-well white assay plates (Greiner Bio-One North America, Monroe, NC) using a Multidrop Combi (Thermo Fisher Scientific Inc., Waltham, Massachusetts) at 2,500 cells/4 µL/well. The cell suspension was prepared using new assay media, which contained phenol red-free DMEM (GIBCO), 5% charcoal/dextran-treated FBS (Invitrogen), 1 mM sodium pyruvate (Invitrogen), 2 mM L-Glutamine (Invitrogen), and 100 U/mL of Penicillin and 100 μg/mL of Streptomycin (Invitrogen). All plates were then incubated for 4 h in a 37°C and 5% CO2 incubator. […] In the primary screen, each compound was tested at 7 concentrations ranging from 46 μM to 1.5 nM. 1 μL of rifampicin, a known PXR agonist, was also co-treated in each well, generating a final concentration of 2 μM, using a Flying Reagent Dispenser (Aurora Discovery, Carlsbad, California). All assay plates were placed in an incubator at 37°C with 5% CO2 for 23 h. Following the incubation period, 1 µL of CellTiter-Fluor reagent (Promega, Madison, Wisconsin) was added to each well and all assay plates were placed back into the incubator set at 37°C and 5% CO2 for 1 h. Fluorescence intensity at 540 nm was measured following excitation at 405 nm using a ViewLux plate reader (Perkin Elmer, Shelton, Connecticut), in order to assess cell viability following treatment. Directly after the fluorescent read, 4 μL of ONE-Glo Luciferase reagent (Promega, Madison, Wisconsin) was added to each well using a Flying Reagent Dispenser, and plates were left to sit at room temperature for 30 min. The luminescence of each plate was then measured using the ViewLux plate reader and data were expressed as relative luminescence units. Gross assay performance was assessed by calculating quality metrics, such as coefficient of variance (CV), signal-to-background ratio (S/B), and Z′ factor, a measure of statistical effect size frequently used to judge whether an assay can be scaled up to a large high-throughput screen ([Zhang et al., 1999]).
# Data analysis was completed using a previously described protocol ([Huang et al., 2016]). […] Normalized percent activity for all test compounds was determined using the following equation: % activity = [(V compound - V DMSO)/(V DMSO–V pos)] × 100, where V compound denotes the compound well values, V pos denotes the median value of the positive control wells, and V DMSO denotes the median value of the DMSO-only wells. Following normalization, data points were corrected using DMSO-only plates included at the beginning and end of the compound plate stack using an in-house pattern correction algorithm in order to remove background patterns, as well as other small abnormalities within the dataset ([Southall et al., 2009]). […] Efficacy is then [a inf - a 0 ]. a=a0+ainf−a0 c^n/k^n+c^n
# Curve class was further converted to curve rank by combining each class with efficacy, such that good quality, efficacious curves are assigned large absolute curve rank values. […] The activity outcome was based on the PXR antagonist readout activity and a cell viability counter screen.
row,SMILES,IC70 values from the original NPACT screen
1,CCCCCOc1cc2c(cc1-c1cc(/C=C/C(=O)O)ccc1O)C(C)(C)CCC2(C)C [UVI 3003],0.8 µM
2,CCN(CC)C(=O)C(c1ccccc1)N1CCN(c2ccc(NC(=O)c3ccccc3-c3cccnc3)cc2F)CC1 (stereo not shown) [JNJ-31020028],10 µM
3,Cc1ccccc1C#Cc1ccc(CCC(=O)O)cc1 [TUG-424],3 µM
4,C=C1C(=O)O[C@@H]2[C@H]1CC[C@H](C)[C@]1(CCC(=O)O1)C2(C)O (stereo partly shown) [NCGC00380135-02],7 µM
5,CC(C)NCCCn1c(Sc2cc3c(cc2I)OCO3)nc2c(N)ncnc21 [PU-H71],0.5 µM
6,CN(C)c1cc2c(cc1Sc1nc3c(N)nccc3n1CCNCC(C)(C)C)OCO2 [CUDC-305],0.25 µM
7,COC(=O)C1=C(C)NC(COC(N)=O)=C(C(=O)OC(C)C)C1c1cccc(Cl)c1Cl (stereo not shown) [lemildipine],0.6 µM
8,Cc1cccc2c1CC[C@H](CN1CCC(c3c(Cl)cccc3Cl)CC1)C[C@@H]2O [SB-612111],8 µM
9,CC(C)(O)C1Cc2c(ccc(C(=O)CCc3ccccc3)c2O)O1 (stereo not shown) [NCGC00385629-01],0.8 µM
10,COC(=O)C[C@H]1C(C)(C)[C@H](OC(=O)c2ccccc2)C2CC3=C4CC(=O)O[C@@H](c5ccoc5)[C@]4(C)CCC3[C@@]1(C)C2=O (stereo partly shown) [NCGC00384964-01],15 µM
11,CC(C)C[C@@H](C(=O)N[C@@H](Cc1ccc(OCc2ccccc2)cc1)C(=O)NC(C)(C)C)N(C)Cc1ccc(C(C)(C)C)cc1 [PD 173212],3 µM
12,CC(C)(C)NC(=O)[C@@H](c1cccnc1)N(C(=O)c1ccco1)c1ccc(C(C)(C)C)cc1 [ML 188],1 µM
13,CC1CCN(c2cc(NC(=O)c3ccccc3)ncn2)CC1 [ML 340],3 µM
14,c1ccc2c(Oc3nc(Nc4ccc(N5CCOCC5)cc4)c4ncn(C5CCCCC5)c4n3)cccc2c1 [purmorpharmine],10 µM
15,CC[C@@H](C)Nc1cc(C(=O)N[C@H]2C[C@H]3CC[C@@H](C2)N3c2ccc(C(=O)C3CC3)cn2)c(C)cc1C(N)=O [XL-888],0.5 µM

# Biological target: T1, hPXR
# Assay: Pharmacological inhibition (IC50 shift) assay with varying rifampicin in HepG2-CYP3A4-hPXR cells
# Format: cell-based
# Details: co-treated with 2 µM versus 10 µM rifampicin
# Description: as §1
# Each curve was co-treated with 5 μM RIF, 7.5 μM RIF, or 10 μM RIF (a well-known PXR agonist) to determine pharmacological activity. […] Each curve was generated from a combination of all data points together.
row,SMILES,decrease in potency
1,"COc1ccc(OC)c(-n2nnc(S(=O)(=O)c3ccc(C(C)(C)C)cc3)c2C)c1 [SPA70, 4-(4-tert-Butylphenylsulfonyl)-1-(2,5-dimethoxyphenyl)-5-methyl-1H-1,2,3-triazole]",more than 2 fold

# Test system: CYP3A4 mRNA expression
# Assay: CYP3A4 mRNA expression by qRT-PCR in HepaRG cells treated with compound alone
# Format: cell-based, human
# Details: 24 h, compound at its IC70 concentration, vs DMSO
# Description: Fully differentiated NoSpin™ HepaRG™ cells (Lonza, Walkersville, Maryland) were seeded into 12-well collagen-coated plates (Corning) at a density of 8 × 10^5 cells/well using Williams’ E medium (ThermoFisher) supplemented with HepaRG™ thawing and plating medium supplement (Lonza), 25 U/mL penicillin, and 25 μg/mL streptomycin (Invitrogen). The cells were then placed into a 37°C and 5% CO2 incubator for 3 days including a media change before treatment. Cells were then treated with the vehicle control (final concentration of 0.1% DMSO), the positive controls, or test compounds for 24 h before harvesting.
# Total RNA was extracted from the cell lysate using an RNeasy Mini kit (Qiagen) according to the manufacturer’s instructions. RNA was reverse transcribed to cDNA using a High-Capacity RNA-to-cDNA kit (Applied Biosystems). CYP3A4 and CYP2B6 mRNA expression were both measured and normalized to the glyceraldehyde-3-phosphate dehydrogenase (GAPDH) housekeeping gene. Real-time PCR was completed using a QuantStudio Real-Time PCR system (Applied Biosystems) with TaqMan probes (CYP3A4 Assay ID: Hs00604506_m1, CYP2B6 Assay ID: Hs04183483_g1, GAPDH Assay ID: Hs99999905_m1, ThermoFisher Scientific, Waltham, MA). Following amplification, induction values were calculated using the equation: Fold = 2^−ΔΔCt, where ΔCt represents the difference in number of cycles required to reach the Ct threshold between CYP3A4 or CYP2B6 and GAPDH, and ΔΔCt represents the relative change in these differences between the control (DMSO) and treatment groups. Experimental data are expressed as a mean of triplicate values ±SD. Statistical analysis was performed using one-way analysis of variance with post hoc Dunnett’s analysis. The statistical significance values were set at p < 0.05 (*), p < 0.01 (**), and p < 0.001 (***).
# To overcome the previous screening limitations, we used this more physiologically relevant cell line, HepaRG cells, to run follow-up studies with the PXR antagonists identified from the primary screen which used immortalized cell lines without a metabolic component. Using HepaRG cells, the 20 potential PXR antagonists were treated for 24 h and harvested for mRNA (Supplementary Figure S1).
# FIGURE 3 HepaRG cells were treated with the top 20 most promising PXR antagonists identified from the high-throughput screen. […] The concentrations for the test compounds were the IC70 values from the original NPACT screen. Real-time PCR was used to analyze the mRNA expression of CYP3A4. Each bar represents the mean ± SD in triplicate. *, p < 0.05; **, p < 0.01.
row,SMILES,inhibition of CYP3A4 mRNA expression (in words)
1,CCCCCOc1cc2c(cc1-c1cc(/C=C/C(=O)O)ccc1O)C(C)(C)CCC2(C)C [UVI 3003],generated CYP3A4 inhibition but not to a significant degree
2,CCN(CC)C(=O)C(c1ccccc1)N1CCN(c2ccc(NC(=O)c3ccccc3-c3cccnc3)cc2F)CC1 (stereo not shown) [JNJ-31020028],significantly inhibited CYP3A4 mRNA expression
3,CC(C)NCCCn1c(Sc2cc3c(cc2I)OCO3)nc2c(N)ncnc21 [PU-H71],significantly inhibited CYP3A4 mRNA expression
